Assay results as given in US20100249234A1, “METHODS OF REDUCING VIRULENCE IN BACTERIA” (UWM RESEARCH FOUNDATION, INC., priority 2007, published 2010).

Columns and labels:
Assay type in all cases: cell-based, Dickeya dadantii 3937 (Ech3937)
hrpN promoter = hrpN promoter activity, GFP reporter plasmid phrpN, flow cytometry (FACS); conditions: for GFP intensity (Mean Fluorescence Intensity) of Ech3937 (phrpN): MM + 0.1 mM PCA (MMPCA); for GFP intensity (Mean Fluorescence Intensity) of WPP96 (phrpN): hrpL mutant WPP96; for GFP intensity (Mean Fluorescence Intensity) of WPP96 (phrpN) / GFP intensity (Mean Fluorescence Intensity) of WPP90 (phrpN) / GFP intensity (Mean Fluorescence Intensity) of WPP67 (phrpN) / GFP intensity (Mean Fluorescence Intensity) of WPP92 (phrpN): MM + 0.1 mM PCA; for GFP intensity (Mean Fluorescence Intensity) of WPP90 (phrpN): hrpS mutant WPP90; for GFP intensity (Mean Fluorescence Intensity) of WPP67 (phrpN): hrpX mutant WPP67; for GFP intensity (Mean Fluorescence Intensity) of WPP92 (phrpN): hrpY mutant WPP92
hrpA promoter = hrpA promoter activity, GFP reporter plasmid phrpA, flow cytometry (FACS); conditions: for GFP intensity (Mean Fluorescence Intensity) of Ech3937 (phrpA): MM + 0.1 mM PCA (MMPCA); for expression of hrpA, GFP intensity (Mean Fluorescence Intensity), Ech3937 carrying phrpA: MM + 0.1 mM compound; for GFP intensity (Mean Fluorescence Intensity) of WPP96 (phrpA): hrpL mutant WPP96; for GFP intensity (Mean Fluorescence Intensity) of WPP96 (phrpA) / GFP intensity (Mean Fluorescence Intensity) of WPP90 (phrpA) / GFP intensity (Mean Fluorescence Intensity) of WPP67 (phrpA) / GFP intensity (Mean Fluorescence Intensity) of WPP92 (phrpA): MM + 0.1 mM PCA; for GFP intensity (Mean Fluorescence Intensity) of WPP90 (phrpA): hrpS mutant WPP90; for GFP intensity (Mean Fluorescence Intensity) of WPP67 (phrpA): hrpX mutant WPP67; for GFP intensity (Mean Fluorescence Intensity) of WPP92 (phrpA): hrpY mutant WPP92
Procedure: (§1) FACS analysis of promoter activity of dspE, hrpA, hrpL, hrpN, and hrpS was carried out as described (Peng et al., 2006). Briefly, the wild-type Ech3937 and the mutant strains carrying the promoter reporter plasmid were grown on LB broth at 28° C. overnight and transferred to appropriate media. For FACS analysis, samples were collected by centrifugation, washed with 1× phosphate buffer saline (PBS) at 13,000 rpm for 1 min, and re-suspended in 1×PBS to ca 10^6 CFU/ml prior to being run in a FACS Calibur flow cytometer (BD Biosciences, CA). Three replicates were performed for each treatment.
To identify potential compounds that repress activation of T3SS, analogs and isomers of TCA and intermediates of salicylic acid and phenypropanoid biosynthesis pathways in plants were further screened for their effect on Ech3937 hrpA expression by flow cytometry (Table 9). A green fluorescent protein (GFP) reporter plasmid phrpA (pProbe-AT derivative with PCR fragment containing hrpA promoter region) was constructed, resulting in a transcriptional fusion of hrpA promoter with GFP gene. Bacterial cells containing phrpA plasmid were grown in MM supplemented with 0.1 mM of each compound. GFP intensity, which is a measurement of hrpA promoter activity, was measured by flow cytometry.

hrpL promoter = hrpL promoter activity, GFP reporter plasmid phrpL, flow cytometry (FACS); conditions: MM + 0.1 mM PCA (MMPCA)
Procedure: as §1
(§2) Since OCA and TCA induced the expression of hrpN, the effect of these two phenolic compounds on the expression of hrpA, hrpL, and hrpS was investigated further. […] GFP intensity was determined on gated populations of bacterial cells by flow cytometry and analyzed with the Cell Quest software (BD Biosciences, San Jose, Calif.). The lines labeled “1” stand for the GFP expression control base level of the Ech3937 containing pPROBE-AT vector; lines labeled “2” stand for the promoter activity of hrpS, hrpL, hrpA and hrpN in Ech3937 in MM; lines labeled “3” stand for the promoter activity of Ech3937 in MM supplemented with 0.1 mM OCA; lines labeled “4” stand for the promoter activity of hrpL mutant WPP96 in MM; lines labeled “5” stand for the promoter activity of hrpL mutant WPP96 in MM supplemented with 0.1 mM OCA. Values are representative of at least two experiments. […] Compared with MM alone, the average GFP fluorescence intensity of bacterial cells of Ech3937 (phrpA) was doubled when 0.1 mM of OCA and TCA were added to the medium (Table 4; FIG. 3). […] The mrp, whose protein product has an ATPase conserved domain (2e-06), was used as a reference gene in this study.

hrpS promoter = hrpS promoter activity, GFP reporter plasmid phrpS, flow cytometry (FACS); conditions: MM + 0.1 mM PCA (MMPCA)
Procedure: as §1, §2

hrpL mRNA = experiment: qRT-PCR relative mRNA level of hrpL; conditions: MM supplemented with PCA vs MM alone (normalized to 1), P=0.001
Procedure: (§3) Bacterial strains were grown in MM. Total RNA from the bacterial cells was isolated by using the TRI reagent method (Sigma, Mo.) and treated with Turbo DNA-free DNase kits (Ambion, TX) as described (Peng et al., 2006). An iScript cDNA Synthesis Kit (Bio-Rad, CA) was used to synthesize cDNA from 0.5 μg of treated total RNA. The Real Master Mix (Eppendorf, Westbury, N.Y.) was used for qRT-PCR reaction to quantify the cDNA level of target genes in different samples. The rplU was used as the endogenous control for data analysis. qRT-PCR data were analyzed using Relative Expression Software Tool as described (Pfaffl, M. W., Horgan, G. W., and Dempfle, L. (2002) Relative expression software tool (REST) for group-wise comparison and statistical analysis of relative expression results in real-time PCR. Nucleic Acids Res 30:e36.).

dspE mRNA = experiment: qRT-PCR relative mRNA level of dspE; conditions: 0.1 mM PCA, P=0.001 (FIG. 14)
Procedure: as §3

hrpN mRNA = experiment: qRT-PCR relative mRNA level of hrpN; conditions: 0.1 mM PCA, P=0.001 (FIG. 14)
Procedure: as §3

HrpN = HrpN protein expression; conditions: MM supplemented with 0.1 mM of PCA (FIG. 15)
Text: To further elucidate whether T3SS gene expression is mainly regulated through the HrpX/Y-HrpS-HrpL regulatory pathway, the expression of hrpA and hrpN in wild-type Ech3937 and hrpX (WPP67), hrpY (WPP92), hrpS (WPP90), and hrpL (WPP96) mutants in MM were examined. […] Similar expression of hrpA and hrpN was observed among WPP67, WPP92, WPP90 and WPP96 carrying phrpA and phrpN grown in MM and MM supplemented with PCA. […] Since PCA represses the expression of several T3SS genes such as hrpN, the effect of PCA on protein production of HrpN was further examined.

O=C(O)/C=C/c1ccc(O)cc1 [PCA, p-coumaric acid]
GFP intensity (Mean Fluorescence Intensity) of Ech3937 (phrpN) (hrpN promoter; 12 h (Table 10)): 6.8 ± 0.8
GFP intensity (Mean Fluorescence Intensity) of Ech3937 (phrpN) (hrpN promoter; 12 h (Table 11)): 4.3 ± 0.1
GFP intensity (Mean Fluorescence Intensity) of Ech3937 (phrpN) (hrpN promoter; 24 h (Table 10)): 11.3 ± 3.4
GFP intensity (Mean Fluorescence Intensity) of Ech3937 (phrpN) (hrpN promoter; 24 h (Table 11)): 8.8 ± 2.1
promoter activity (expression) of hrpN compared with MM alone (hrpN promoter; MM supplemented with 0.1 mM PCA): reduced expression
GFP intensity (Mean Fluorescence Intensity) of WPP96 (phrpN) (hrpN promoter; 12 h): 3.0 ± 0.0
GFP intensity (Mean Fluorescence Intensity) of WPP96 (phrpN) (hrpN promoter; 24 h): 4.3 ± 0.1
GFP intensity (Mean Fluorescence Intensity) of WPP90 (phrpN) (hrpN promoter; 12 h): 3.5 ± 0.1
GFP intensity (Mean Fluorescence Intensity) of WPP90 (phrpN) (hrpN promoter; 24 h): 5.1 ± 0.1
GFP intensity (Mean Fluorescence Intensity) of WPP67 (phrpN) (hrpN promoter; 12 h): 3.5 ± 0.2
GFP intensity (Mean Fluorescence Intensity) of WPP67 (phrpN) (hrpN promoter; 24 h): 6.3 ± 0.7
GFP intensity (Mean Fluorescence Intensity) of WPP92 (phrpN) (hrpN promoter; 12 h): 3.6 ± 0.1
GFP intensity (Mean Fluorescence Intensity) of WPP92 (phrpN) (hrpN promoter; 24 h): 5.5 ± 0.3
reduction of average GFP fluorescence intensity of Ech3937 (phrpA) compared with MM alone (hrpA promoter; 0.05 and 0.1 mM of PCA, 12 h and 24 h (FIGS. 16A, 16B)): more than 4 fold
GFP intensity (Mean Fluorescence Intensity) of Ech3937 (phrpA) (hrpA promoter; 12 h (Table 10)): 10.3 ± 1.3
GFP intensity (Mean Fluorescence Intensity) of Ech3937 (phrpA) (hrpA promoter; 12 h (Table 11)): 9.2 ± 0.4
GFP intensity (Mean Fluorescence Intensity) of Ech3937 (phrpA) (hrpA promoter; 24 h (Table 10)): 18.5 ± 3.5
GFP intensity (Mean Fluorescence Intensity) of Ech3937 (phrpA) (hrpA promoter; 24 h (Table 11)): 12.7 ± 0.3
effect on expression of hrpA (screen result) (hrpA promoter; MM + 0.1 mM compound (Table 9)): inhibitors of the expression of hrpA
expression of hrpA, GFP intensity (Mean Fluorescence Intensity), Ech3937 carrying phrpA (hrpA promoter; 6 h (Table 9)): 6.9 ± 0.1
expression of hrpA, GFP intensity (Mean Fluorescence Intensity), Ech3937 carrying phrpA (hrpA promoter; 12 h (Table 9)): 10.2 ± 0.4
expression of hrpA, GFP intensity (Mean Fluorescence Intensity), Ech3937 carrying phrpA (hrpA promoter; 24 h (Table 9)): 11.4 ± 1.0
reduction of GFP fluorescence intensity of Ech3937 (phrpA) (hrpA promoter; PCA at 0.001, 0.005 and 0.01 (FIGS. 16A, 16B)): did not result in substantial reduction
GFP intensity (Mean Fluorescence Intensity) of WPP96 (phrpA) (hrpA promoter; 12 h): 7.3 ± 0.1
GFP intensity (Mean Fluorescence Intensity) of WPP96 (phrpA) (hrpA promoter; 24 h): 9.0 ± 1.6
GFP intensity (Mean Fluorescence Intensity) of WPP90 (phrpA) (hrpA promoter; 12 h): 7.9 ± 0.2
GFP intensity (Mean Fluorescence Intensity) of WPP90 (phrpA) (hrpA promoter; 24 h): 9.3 ± 0.2
GFP intensity (Mean Fluorescence Intensity) of WPP67 (phrpA) (hrpA promoter; 12 h): 7.9 ± 0.2
GFP intensity (Mean Fluorescence Intensity) of WPP67 (phrpA) (hrpA promoter; 24 h): 9.0 ± 1.3
GFP intensity (Mean Fluorescence Intensity) of WPP92 (phrpA) (hrpA promoter; 12 h): 6.9 ± 0.1
GFP intensity (Mean Fluorescence Intensity) of WPP92 (phrpA) (hrpA promoter; 24 h): 9.4 ± 0.7
GFP intensity (Mean Fluorescence Intensity) of Ech3937 (phrpL) (hrpL promoter; 12 h (Table 10)): 7.8 ± 0.1
GFP intensity (Mean Fluorescence Intensity) of Ech3937 (phrpL) (hrpL promoter; 24 h (Table 10)): 11.1 ± 3.3
GFP intensity (Mean Fluorescence Intensity) of Ech3937 (phrpS) (hrpS promoter; 12 h (Table 10)): 37.9 ± 1.3
GFP intensity (Mean Fluorescence Intensity) of Ech3937 (phrpS) (hrpS promoter; 24 h (Table 10)): 43.6 ± 2.6
hrpL mRNA relative expression ratio (hrpL mRNA): 0.039
dspE mRNA compared with MM alone (normalized to 1), qRT-PCR (dspE mRNA): significantly lower amount of mRNA
hrpN mRNA compared with MM alone (normalized to 1), qRT-PCR (hrpN mRNA): significantly lower amount of mRNA
amount of HrpN protein compared with MM alone (HrpN): lower amount of HrpN
